Experimental data from PubChem BioAssay (NCI).
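Interpolation was linear, between the two tested concentrations surrounding the appropriate level; five concentrations were tested over 48 hours in 96-well plates. TGI: total growth inhibition.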

Tested on: P388 leukemia
Experiment: NCI tumour cell line growth inhibition, 48 h

`O=C[C@@H](CO)O[C@H](C=O)n1cnc2c(=O)[nH]cnc21` was tested, and the TGI was 374 µM.
